In US20220251036A1, “DIFLUOROHALOALLYLAMINE SULFONE DERIVATIVE INHIBITORS OF LYSYL OXIDASES, METHODS OF PREPARATION, AND USES THEREOF” (PHARMAXIS LTD., priority 2019, published 2022):

Key:
[1] = biological target: T1, recombinant human DAO (Homo sapiens, UniProt P19801); experiment: DAO inhibition; type: biochemical; details: 2 hours incubation
T1 construct: Gift: Prof; Boehm, Department of Clinical Pharmacology, Medical University, Vienna
T1 sequence (P19801 20-751): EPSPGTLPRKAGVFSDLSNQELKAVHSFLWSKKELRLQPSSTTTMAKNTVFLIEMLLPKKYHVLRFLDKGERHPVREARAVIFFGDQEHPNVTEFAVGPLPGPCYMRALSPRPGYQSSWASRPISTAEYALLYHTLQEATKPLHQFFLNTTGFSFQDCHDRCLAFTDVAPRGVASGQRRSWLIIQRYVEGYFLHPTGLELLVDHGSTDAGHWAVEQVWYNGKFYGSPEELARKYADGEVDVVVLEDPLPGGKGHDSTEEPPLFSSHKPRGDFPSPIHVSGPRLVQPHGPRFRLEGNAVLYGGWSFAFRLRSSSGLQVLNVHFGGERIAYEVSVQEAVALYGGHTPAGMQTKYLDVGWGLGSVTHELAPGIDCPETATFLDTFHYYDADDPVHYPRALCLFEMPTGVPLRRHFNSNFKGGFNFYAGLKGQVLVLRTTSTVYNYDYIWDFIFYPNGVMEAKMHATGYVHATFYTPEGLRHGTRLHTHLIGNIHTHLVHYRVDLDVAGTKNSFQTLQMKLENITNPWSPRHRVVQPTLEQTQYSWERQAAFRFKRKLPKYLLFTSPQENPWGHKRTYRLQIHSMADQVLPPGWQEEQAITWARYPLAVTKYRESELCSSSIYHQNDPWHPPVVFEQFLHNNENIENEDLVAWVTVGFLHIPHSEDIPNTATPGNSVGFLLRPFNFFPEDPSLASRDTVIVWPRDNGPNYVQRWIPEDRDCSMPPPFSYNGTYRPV
Procedure: The specificity of the compounds of this invention was tested by determining their ability to inhibit DAO activity in vitro, using recombinant human DAO (100 ng/mL; kindly provided by Prof. Boehm, Department of Clinical Pharmacology, Medical University, Vienna). The assay was performed in a similar way as for human SSAO/VAP-1 (Example 8) except, the incubation with the test compounds was extended to 2 hours, and the substrate […] was used at 100 μM in place of benzylamine.

[2] = Skin permeability, Franz diffusion cell system; type: in vitro ADME, human; details: topical formulation containing 3% compound; for Concentration of Compound 1 in the receptor chamber: human skin
From the text: Skin permeability is essential when considering topical application to treat skin conditions. One way to evaluate skin permeability is to use a Franz diffusion cell system with human skin as a membrane (Particle Sciences; Technical Brief 2009; Vol. 10). The donor compound, topically formulated, is applied on the top chamber and diffusion through the skin is monitored at relevant time points by sampling the solution in the receptor chamber via the sampling port. The concentration of Compound 1 was determined by quantitative HPLC analysis.

[3] = Chemical stability in topical formulation; type: physicochemical
From the text: The stability of a drug product formulation can have a significant impact on the length and cost of drug development, the nature of the studies required to support regulatory submissions, and, ultimately, safety and approvability. It is important to minimize the amount of impurities or degradation products that form over time due to interactions between the various ingredients in a formulation. This can be particularly important in compositions that are designed to increase skin permeability.

[4] = test system: skin fibrosis; experiment: Mouse model of sclerosis (bleomycin-induced skin fibrosis); type: in vivo, male C57BL/6; details: […] in a topical formulation from day 3, histology after 21 days
Procedure: Subcutaneous bleomycin (0.1 U/kg) was administered every second day (for 21 days total) to male C57BL/6 to induced skin fibrosis as a model of sclerosis. […] Histology was completed after 21 days.

[5] = test system: LOX; experiment: Lysyl oxidase activity in rat skin after topical administration; type: in vivo; details: for dorsal skin LOX activity compared to the placebos: rats, topical
Procedure: Dorsal and ventral skin from rats treated by topical application of compound 1 were semi-defrosted at ice-cold temperature and three 3 mm punches of the skin were taken using a tissue puncher. The core sample was microdissected to leave only the epidermal and dermal layers. All other layers were removed. […] The tissue punch was placed in a 1.5 mL Eppendorf tube and snap-frozen in liquid nitrogen. A mortar and pestle stored at −80° C. was then used to pulverize skin tissue. The pulverized sample was further washed in 1 mL of ice-cold washing buffer ((0.15 M NaCl, 50 mM sodium borate, pH 8.0, with PMSF: Sigma P7626, 0.25 mM, and Aprotinin: Sigma A6279, 1 μL per mL). The tissue buffer was centrifuged (20000 g for 10 minutes at 4° C.), and the supernatant was discarded. Fresh wash buffer (1 mL) was added and the Eppendorf tube was agitated for 5 minutes at 4° C. on a vortex shaker. Washing was repeated two more times. After the last wash, the supernatant was completely removed. The rat dorsal skin pellet was re-suspended in 6 M urea 50 mM sodium borate buffer, according to sample weight to achieve final urea concentration of 4.5 M. The extraction buffer contains protease inhibitors; aprotinin and PMSF as above. Each homogenate was well-mixed by continuous vortexing at 4° C. for a 3 hour extraction. After 3 hours, […] 50 mM sodium borate buffer was added to each sample according to sample size to achieve the final urea concentration of 2.4 M. Protease inhibitors—aprotinin and PMSF—are present. The mixture was again centrifuged at (20000 g at 4° C. for 10 minutes) and the supernatant was collected in a clean, cold eppendorf. To 50 μl of sample, pargyline (final concentration at 0.5 mM) and mofegiline (final concentration at 1 μM) were added. Enzyme mix (25 μL) was transferred to the test plate with or without […] (0.5 μl 30 mM) and incubated at 37° C. for 30 minutes. Reaction mix (25 μL) is added to each well, plate fluorescence is measured every 2.5′ with or without 100 μM BAPN for the low controls (Ex: 544 nm/Em: 590 nm/gain: 1260 at 37° C.).

N#CCCN [BAPN, β-aminopropionitrile, reference compound]
IC50 [1]: > 30 µM

NC/C=C(\F)C(F)(F)S(=O)(=O)c1ccccc1 [Compound 1, (Z)-3,4,4-trifluoro-4-(phenylsulfonyl)but-2-en-1-amine]
Concentration of Compound 1 in the receptor chamber ([2]; 0 hr): 0 µM | Concentration of Compound 1 in the receptor chamber ([2]; 2 hr): 0.017 µM | Concentration of Compound 1 in the receptor chamber ([2]; 4 hr): 0.042 µM | Concentration of Compound 1 in the receptor chamber ([2]; 6 hr): 0.166 µM | Concentration of Compound 1 in the receptor chamber ([2]; 20 hr): 1.742 µM | permeability and diffusion across the membrane (in words) ([2]; time dependent): good permeability and diffusion | % Area at 265 nm ([3]; 6% in formulation 2, 2-8° C., 161 days): 100.00 % Area | % Area at 265 nm ([3]; 6% in formulation 2, 40° C., 161 days): 99.66 % Area | % Area at 265 nm ([3]; 6% in formulation 2, reference sample): 100.00 % Area | % Area at 265 nm ([3]; 6% in formulation 2, rt, 161 days): 100.00 % Area | % Area at 265 nm ([3]; 8% in formulation 2, 2-8° C., 161 days): 99.91 % Area | % Area at 265 nm ([3]; 8% in formulation 2, 40° C., 161 days): 99.36 % Area | % Area at 265 nm ([3]; 8% in formulation 2, reference sample): 100.00 % Area | % Area at 265 nm ([3]; 8% in formulation 2, rt, 161 days): 99.74 % Area | compound peak percentage ([3]; topical formulation 2, all the tested conditions): above 99.5% | average LOX score [4]: significant improvement | average collagen score [4]: significant improvement | composite skin score [4]: significant improvement | dorsal skin LOX activity compared to the placebos ([5]; cream containing 1% Compound 1, 400 mg/rat): significantly lower | dorsal skin LOX activity compared to the placebos ([5]; cream containing 3% Compound 1, 200 mg/rat): significantly lower | LOX activity in the skin of rats ([5]; topical application of cream versus control (FIG. 3)): reduction

CNc1ccccc1S(=O)(=O)C(F)(F)/C(F)=C/CN [Compound 4, (Z)-2-((4-amino-1,1,2-trifluorobut-2-en-yl)sulfony1)-N-methylaniline]
IC50 [1]: > 30 µM
